Data taken from patent publication US20110064773A1, “PHARMACEUTICAL COMPOSITIONS COMPRISING A THYROID HORMON AND THEIR THERAPEUTIC USE” (UNIVERSITE JOSEPH FOURIER, priority 2007, published 2011).
“Also recorded” adds a separate entry of the source.

Columns and labels:
[1] = tested on: nuclear receptors of the thyroid hormones, TRα-1 and TRβ-1; conditions: literature statements; cited from earlier work
ZDF rats [2] = assay: Indirect calorimetry (EE, RQ) of ZDF rats; format: in vivo, rat
Source text: Energy expenditure as well as the nature of substrate oxidized (carbohydrates or lipids) were investigated by indirect calorimetry. This principle is based on the determinations of CO2 release (VCO2) and O2 consumption (VO2) by each animal. It assumes that O2 is entirely involved in substrate oxidation in the respiratory chain (leading to water production) while CO2 release is related to substrate decarboxylation (in the Krebs' cycle). These measurements allow assessing energy expenditure (EE) and respiratory quotient ([…], RQ). EE represent the absolute energy dissipation during rest and activity. RQ is a relative measurement indicating the ratio of carbohydrate versus lipid involved in oxidative pathway. A ratio of 1.0 indicates exclusive carbohydrate oxidation while a ratio of 0.7 indicates exclusive lipid oxidation. Each value between these two extreme values indicates the relative proportion of each substrate (of note protein oxidation was not evaluated). As an example, RQ approaches 0.7 during fasting, indicating lipid oxidation, conversely after feeding RQ increases close to 1 indicating carbohydrate oxidation resulting from food intake and blood insulin rise. Likewise, animals fed high-carbohydrate diets have higher RQs than those fed high-fat diets.
The indirect calorimetry system (Panlab, Barcelona, Spain) consists of cages, pumps, flow controllers, valves, and analyzers. It is computer-controlled in order to sequentially measure O2 and CO2 concentrations as well as air flow in four separate cages allowing four simultaneous determinations. Rats are isolated in one of the four metabolic chambers, and room air is used as a reference to monitor ambient O2 and CO2 concentrations periodically.
At predefined intervals, the computer sends a signal to store differential CO2 and O2 concentrations, flow rate, allowing computing VCO2, VO2, RQ, and EE (Weir equation) with data acquisition hardware (Metabolism, Panlab, Barcelona, Spain).

Wistar rats [3] = assay: OGTT in Wistar rats fed a high fat high sucrose diet; format: in vivo, rat; conditions: 8 weeks high fat high sucrose diet, rT3 2.5 μg/100 g, vs placebo
Protocol: A clinically relevant situation of a nutritionally-induced insulin resistance is known as a high fat high sucrose diet (HF). Therefore, the effects of rT3 on glucose and insulin response to an OGTT test were investigated. Wistar rats were fed a diet containing 45.5% fat (38% lard and 7.5% soy oil) and 34% carbohydrate (25% as sucrose) for 8 weeks. OGTT was performed as described above.

ZDF rats [4] = assay: Glycaemia, insulinaemia and pancreas mass in ZDF diabetic rats; format: in vivo, rat
Protocol: Rats were genetically obese normoglycemic (Zucker or Fa/Fa), 10-11 week-old diabetic rats (ZDF), genetic non-overweight diabetic (type 2 diabetes) rats (Goto-Kakizaki (GK) model), non-overweight diabetic (type 2 diabetes) rats n0STZ model or normal Wistar rats submitted to an 8-week high-fat high sucrose diet (a model of nutritional induction of insulin resistance).
The day of the study, after a fasted period overnight (18 h), blood samplings will be taken in awaked rats from the tail vein.
Insulin levels were determined with commercial kits (Linco Research).
(§1) Glucose and 3-hydroxybutyrate (3-HB) were measured enzymatically and non esterified fatty acid (NEFA) by colorimetric assay (Wako Chemicals).
ZDF diabetic rats are a good model for studying the anti-diabetic treatments, since these animals develop a major hyperglycaemia during their life due to the combination of moderate obesity and pancreas degeneracy. To date, treatments are ineffective when the hyperglycaemia is established.
Then ZDF rats were treated with low doses of rT3 for 21 days (2.5 μg/100 g BW/day) and the glycaemia, insulinaemia were measured after 8, 16 and 21 days.

Wistar rats [5] = assay: Wistar rats treated with PTU and IOP (deiodinase inhibition, hypothyroid state) with or without rT3; format: in vivo, rat
Protocol: Thyroid Stimulating Hormone (TSH) and thyroxine (T4) were measured by radioimmunoassay with rat standards (RPA 554 Amersham bioscience, RIA FT4-immunotech, for TSH and T4 respectively).
In order to understand the mode of action of the treatments, Wistar rats were treated with pharmacological products that inhibit the synthesis and deiodination of thyroid hormones PTU and IOP.
Animals (Wistar) were submitted to a treatment by propyl-thiouracile (PTU in the drinking water) and iopanoic acid (IOP one sc-injection weekly) inducing a complete inhibition of all deiodinases (types I, II and III). Such treatment is responsible for the induction of a severe hypothyroid state. In addition this treatment impairs the peripheral metabolism of all thyroid hormones by deiodination. Some rats were also submitted to a sub-cutaneous administration of rT3 (2.5 μg/100 g). Three groups were constituted: controls, PTU+IOP and PTU+IOP+rT3 and duration of the experiment was 3 weeks.

Wistar rats [6] = assay: Plasma concentrations of glucose, triglycerides, cholesterol, FFA and HDL in Wistar rats; format: in vivo, rat; conditions: for Glycerol (FIG. 60C), plasma / HDL (FIG. 60D), plasma: 21 days
Source text: These measurements were done on venous blood of the rats the day of the sacrifice.
At the end of the experimental period, animals were sacrificed by decapitation, in order to avoid the well-known effects of general anesthetics on mitochondrial metabolism. Blood samples were immediately collected and plasma was frozen for subsequent determination of serum metabolites and hormones. Liver, muscles and fat depots were quickly excised and weighed. Liver median lobe was rapidly freeze-clamped. Muscles (plantaris, soleus and gastrocnemius) were frozen in isopentane precooled in liquid nitrogen. Mesenteric fat consisted of adipose tissue surrounding the gastro-intestinal tract from the gastro-oesophageal sphincter to the end of the rectum with special care taken in distinguishing and removing the pancreas. Retroperitoneal fat pad was taken as the distinct depot behind each kidney along the lumbar muscles. Epididymal fat consisted of adipose tissue on top of the epididymis. For subcutaneous depot measurement, a rectangular piece of skin was taken on the right side of each animal from the median line of the abdomen between the spine and the right hip to the first rib. Interscapular brown adipose tissue was removed and dissected free from adjacent muscles and white adipose tissue. The heart ventricles, the right kidney and the spleen were also excised, weighed and frozen.
as §1
Triglycerides and cholesterol were measured by classical routine automate apparatus.

[7] = PTU+IOP alone vs placebo, or rT3 2.5 μg/100 g added to PTU+IOP
[8] = PTU+IOP alone, or rT3 (2.5 μg/100 g) added to PTU+IOP
[9] = Wistar rats, high dosage 25 μg/100 g BW
[10] = Wistar rats, high dose 250 μg/kg BW/day, day of sacrifice, vs placebo
[11] = Wistar rats, low dosage 2.5 μg/100 g BW

## N[C@@H](Cc1ccc(Oc2cc(I)c(O)c(I)c2)c(I)c1)C(=O)O [rT3, 3′,5′,3-triiodothyronine]
[1]
  Binding to the nuclear (TH) receptors: very little affinity
ZDF rats [2]; 2.5 μg/100 g BW, vs placebo
  Energy expenditure: enhanced
  Respiratory quotient (RQ): enhanced
ZDF rats [2]; low dose of rT3
  Energy expenditure, enhancement: +50%
Wistar rats [3]
  Blood glucose, area under the curve (AUC) after OGTT: significant lowering
  Blood glucose, change over time of plasma concentration after OGTT: significant lowering
  Insulin levels, AUC after OGTT: significantly lower
  Insulin levels, changes over time after OGTT: significantly lower
ZDF rats [4]; 2.5 μg/100 g BW/day, up to 21 days, placebo progressively decreases
  Insulin level (blood insulin concentration): maintained; also recorded: increasing plasmatic insulin concentration
ZDF rats [4]; 2.5 μg/100 g BW/day, vs placebo
  Pancreas mass: increased
ZDF rats [4]; low dose 2.5 μg/100 g BW/day, 8, 16 and 21 days, vs placebo
  Glycaemia (blood glucose concentration): large reduction; also recorded: decreasing glucose concentration
Wistar rats [5]; 3 weeks, PTU+IOP alone vs controls, or rT3 2.5 μg/100 g sc added to PTU+IOP
  Animal mass (body weight): enhances the decrease induced by PTU-IOP
Wistar rats [5]; 3 weeks, PTU-IOP with or without rT3 2.5 μg/100 g
  Appetite (food intake): remains unchanged
Wistar rats [5]; [7]
  Energy expenditure (EE): enhanced
  Respiratory quotient (RQ): enhanced
Wistar rats [5]; [8]
  Activity of mGPdH: stimulates
  Brown adipose tissue mass: also enhanced
  Mitochondrial state 3 respiratory rate with GM, S and GMS: corrected the effect of PTU+IOP
Wistar rats [6]; Wistar rats, 250 μg/kg BW/day, day of sacrifice, vs placebo
  Cholesterol plasmatic concentration: significantly lower
Wistar rats [6]; [9]
  Glycerol (FIG. 60C), plasma: reduction
  HDL (FIG. 60D), plasma: reduction
Wistar rats [6]; [10]
  Plasma free fatty acids (FFA): higher; also recorded: stimulates the liberation of FFA
  Triglycerides plasmatic concentration: significantly lower; also recorded: degradation of triglycerides
Wistar rats [6]; [11]
  Glycerol (FIG. 60C), plasma: reduction
  HDL (FIG. 60D), plasma: reduction
Wistar rats [6]; normal (non diabetic) Wistar rats, 250 μg/kg BW/day, day of sacrifice, vs placebo
  Fasting glucose plasmatic concentration: slightly increased
